Test results reported in patent US20250179066A1, “ZWITTERIONIC ANTIBACTERIAL COMPOUNDS” (Hoffmann-La Roche Inc., priority 2022, published 2025).
Where a name gives a salt, the structure may show the parent alone.

System: Acinetobacter baumannii ATCC17961
Experiment: Antimicrobial susceptibility testing: 90% growth inhibitory concentration (IC90) determination
Type: cell-based
Settings: Acinetobacter baumannii, ATCC17961, 16 h, 90% growth inhibitory concentration against Acinetobacter baumannii ATCC17961, Iso-Sensitest broth, OD 600 nm over 16 h; read-out: ATCC 17961 IC90
In short: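 OD600 monitored each minute over 16 h at 35±2° C for bacteria (~5×10^5 CFU/mL final) in Iso-Sensitest medium with 10-point twofold compound series (e.g. 10-0.0195 μM final). Concentration giving 90% growth inhibition in log phase reported as IC90.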

In order of falling IC90:
1. Cn1c(-c2cn(-c3cc4nn(CC(N)=O)cc4cn3)nc2C(F)(F)F)cnc1C(=O)Nc1ccc(C(=O)N2CCN(C(=O)[C@H]3CC[N@+](CC(=O)O)(CC4CNC4)CC3)CC2)c(Cl)c1 [Example 149, cis-2-[4-[4-[4-[[5-[1-[2-(2-amino-2-keto-ethyl)pyrazolo[4,3-c]pyridin-6-yl]-3-(trifluoromethyl)pyrazol-4-yl]-1-methyl-imidazole-2-carbonyl]amino]-2-chloro-benzoyl]piperazine-1-carbonyl]-1-(azetidin-3-ylmethyl)piperidin-1-ium-1-yl]acetic acid. 1:1 2,2,2-trifluoroacetate]  744 nM
2. CNC(=O)n1ccc2nc(-n3cc(-c4cnc(C(=O)Nc5ccc(C(=O)N6CCN(C(=O)[C@H]7CC[N@+](CC(=O)O)(CC8CNC8)CC7)CC6)c(Cl)c5)n4C)c(C(F)(F)F)n3)ccc21 [Example 143, cis-2-[1-(azetidin-3-ylmethyl)-4-[4-[2-chloro-4-[[1-methyl-5-[1-[1-(methylcarbamoyl)pyrrolo[3,2-b]pyridin-5-yl]-3-(trifluoromethyl)pyrazol-4-yl]imidazole-2-carbonyl]amino]benzoyl]piperazine-1-carbonyl]piperidin-1-ium-1-yl]acetic acid. 1:1 formate]  682 nM
3. Cc1cc(NC(=O)c2ncc(-c3cn(-c4ccc(N)cc4F)nc3C(F)(F)F)n2C)ccc1C(=O)N1CCN(C(=O)[C@H]2CC[N@+](CC(=O)O)(CC3CNC3)CC2)CC1 [Example 152, cis-2-[4-[4-[4-[[5-[1-(4-amino-2-fluoro-phenyl)-3-(trifluoromethyl)pyrazol-4-yl]-1-methyl-imidazole-2-carbonyl]amino]-2-methyl-benzoyl]piperazine-1-carbonyl]-1-(azetidin-3-ylmethyl)piperidin-1-ium-1-yl]acetic acid. 1:1 2,2,2-trifluoroacetate]  421 nM
4. Cn1c(-c2cn(-c3ccc4[nH]c(CO)cc4n3)nc2C(F)(F)F)cnc1C(=O)Nc1ccc(C(=O)N2CCN(C(=O)[C@H]3CC[N@+](CC(=O)O)(CC4CNC4)CC3)CC2)c(F)c1 [Example 151, cis-2-[1-(azetidin-3-ylmethyl)-4-[4-[2-fluoro-4-[[1-methyl-5-[1-(2-methylol-1H-pyrrolo[3,2-b]pyridin-5-yl)-3-(trifluoromethyl)pyrazol-4-yl]imidazole-2-carbonyl]amino]benzoyl]piperazine-1-carbonyl]piperidin-1-ium-1-yl]acetic acid. 1:1 2,2,2-trifluoroacetate]  403 nM
5. Cc1cc(NC(=O)c2ncc(-c3cn(-c4ccc5[nH]c(CO)cc5n4)nc3C(F)(F)F)n2C)ccc1C(=O)N1CCN(C(=O)[C@H]2CC[N@+](CC(=O)O)(CC3CNC3)CC2)CC1 [Example 153, cis-2-[1-(azetidin-3-ylmethyl)-4-[4-[2-methyl-4-[[1-methyl-5-[1-(2-methylol-1H-pyrrolo[3,2-b]pyridin-5-yl)-3-(trifluoromethyl)pyrazol-4-yl]imidazole-2-carbonyl]amino]benzoyl]piperazine-1-carbonyl]piperidin-1-ium-1-yl]acetic acid. 1:1 2,2,2-trifluoroacetate]  384 nM
6. CN1CCN(C(=O)c2c[nH]c3cc(-n4cc(-c5cnc(C(=O)Nc6ccc(C(=O)N7CCN(C(=O)[C@H]8CC[N@+](CC(=O)O)(CC9CNC9)CC8)CC7)c(Cl)c6)n5C)c(C(F)(F)F)n4)ncc23)CC1 [Example 148, cis-2-[1-(azetidin-3-ylmethyl)-4-[4-[2-chloro-4-[[1-methyl-5-[1-[3-(4-methylpiperazine-1-carbonyl)-1H-pyrrolo[3,2-c]pyridin-6-yl]-3-(trifluoromethyl)pyrazol-4-yl]imidazole-2-carbonyl]amino]benzoyl]piperazine-1-carbonyl]piperidin-1-ium-1-yl]acetic acid. 1:1 2,2,2-trifluoroacetate]  349 nM
7. Cn1c(-c2cn(-c3ccc(N)cc3F)nc2C(F)(F)F)cnc1C(=O)Nc1ccc(C(=O)N2CCN(C(=O)N3CC[N+](CC(=O)O)(CC4CNC4)CC3)CC2)c(Cl)c1 [Example 140, 2-[4-[4-[4-[[5-[1-(4-amino-2-fluoro-phenyl)-3-(trifluoromethyl)pyrazol-4-yl]-1-methyl-imidazole-2-carbonyl]amino]-2-chloro-benzoyl]piperazine-1-carbonyl]-1-(azetidin-3-ylmethyl)piperazin-1-ium-1-yl]acetic acid. 1:1 2,2,2-trifluoroacetate]  334 nM
8. Cn1c(-c2cn(-c3cc4[nH]cc(C(=O)N5CC[C@H](O)C5)c4cn3)nc2C(F)(F)F)cnc1C(=O)Nc1ccc(C(=O)N2CCN(C(=O)[C@H]3CC[N@+](CC(=O)O)(CC4CNC4)CC3)CC2)c(Cl)c1 [Example 155, cis-2-[1-(azetidin-3-ylmethyl)-4-[4-[2-chloro-4-[[5-[1-[3-[(3S)-3-hydroxypyrrolidine-1-carbonyl]-1H-pyrrolo[3,2-c]pyridin-6-yl]-3-(trifluoromethyl)pyrazol-4-yl]-1-methyl-imidazole-2-carbonyl]amino]benzoyl]piperazine-1-carbonyl]piperidin-1-ium-1-yl]acetic acid. 1:1 2,2,2-trifluoroacetate]  329 nM
9. Cn1c(-c2cn(-c3cc4[nH]cc(C(=O)NCCO)c4cn3)nc2C(F)(F)F)cnc1C(=O)Nc1ccc(C(=O)N2CCN(C(=O)[C@H]3CC[N@+](CC(=O)O)(CC4CNC4)CC3)CC2)c(Cl)c1 [Example 146, cis-2-[1-(azetidin-3-ylmethyl)-4-[4-[2-chloro-4-[[5-[1-[3-(2-hydroxyethylcarbamoyl)-1H-pyrrolo[3,2-c]pyridin-6-yl]-3-(trifluoromethyl)pyrazol-4-yl]-1-methyl-imidazole-2-carbonyl]amino]benzoyl]piperazine-1-carbonyl]piperidin-1-ium-1-yl]acetic acid. 1:1 2,2,2-trifluoroacetate]  311 nM
10. Cn1c(-c2cn(-c3ccc4[nH]c(CO)cc4n3)nc2C(F)(F)F)cnc1C(=O)Nc1ccc(C(=O)N2CCN(C(=O)N3CC[N+](CC(=O)O)(CC4CNC4)CC3)CC2)c(Cl)c1 [Example 144, 2-[1-(azetidin-3-ylmethyl)-4-[4-[2-chloro-4-[[1-methyl-5-[1-(2-methylol-1H-pyrrolo[3,2-b]pyridin-5-yl)-3-(trifluoromethyl)pyrazol-4-yl]imidazole-2-carbonyl]amino]benzoyl]piperazine-1-carbonyl]piperazin-1-ium-1-yl]acetic acid. 1:1 2,2,2-trifluoroacetate]  269 nM
11. Cn1c(-c2cn(-c3ccc(N)cc3F)nc2C(F)(F)F)cnc1C(=O)Nc1ccc(C(=O)N2CCN(C(=O)N3CC[N+](CCCN)(CC(=O)O)CC3)CC2)c(Cl)c1 [Example 141, 2-[4-[4-[4-[[5-[1-(4-amino-2-fluoro-phenyl)-3-(trifluoromethyl)pyrazol-4-yl]-1-methyl-imidazole-2-carbonyl]amino]-2-chloro-benzoyl]piperazine-1-carbonyl]-1-(3-aminopropyl)piperazin-1-ium-1-yl]acetic acid. 1:1 2,2,2-trifluoroacetate]  242 nM
12. C[C@@H](O)c1cc2nc(-n3cc(-c4cnc(C(=O)Nc5ccc(C(=O)N6CCN(C(=O)[C@H]7CC[N@+](CC(=O)O)(CC8CNC8)CC7)CC6)c(Cl)c5)n4C)c(C(F)(F)F)n3)ccc2[nH]1 [Example 150, cis-2-[1-(azetidin-3-ylmethyl)-4-[4-[2-chloro-4-[[5-[1-[2-[(1R)-1-hydroxyethyl]-1H-pyrrolo[3,2-b]pyridin-5-yl]-3-(trifluoromethyl)pyrazol-4-yl]-1-methyl-imidazole-2-carbonyl]amino]benzoyl]piperazine-1-carbonyl]piperidin-1-ium-1-yl]acetic acid;formate]  217 nM
13. Cn1c(-c2cn(-c3ccc4[nH]c(CO)cc4n3)nc2C(F)(F)F)cnc1C(=O)Nc1ccc(C(=O)N2CCN(C(=O)C3CC[N+](CCCN)(CC(=O)O)CC3)CC2)c(Cl)c1 (stereo not shown) [Example 145]  205 nM
14. Cn1c(-c2cn(-c3cc4[nH]cc(C(=O)N5CCNCC5)c4cn3)nc2C(F)(F)F)cnc1C(=O)Nc1ccc(C(=O)N2CCN(C(=O)[C@H]3CC[N@+](CC(=O)O)(CC4CNC4)CC3)CC2)c(Cl)c1 [Example 147, cis-2-[1-(azetidin-3-ylmethyl)-4-[4-[2-chloro-4-[[1-methyl-5-[1-[3-(piperazine-1-carbonyl)-1H-pyrrolo[3,2-c]pyridin-6-yl]-4-(trifluoromethyl)pyrazol-4-yl]imidazole-2-carbonyl]amino]benzoyl]piperazine-1-carbonyl]piperidin-1-ium-1-yl]acetic acid. 1:1 2,2,2-trifluoroacetate]  181 nM
15. Cn1c(-c2cn(-c3cc4[nH]c(CCO)cc4cn3)nc2C(F)(F)F)cnc1C(=O)Nc1ccc(C(=O)N2CCN(C(=O)[C@H]3CC[N@+](CC(=O)O)(CC4CNC4)CC3)CC2)c(Cl)c1 [Example 154, cis-2-[1-(azetidin-3-ylmethyl)-4-[4-[2-chloro-4-[[5-[1-[2-(2-hydroxyethyl)-1H-pyrrolo[3,2-c]pyridin-6-yl]-3-(trifluoromethyl)pyrazol-4-yl]-1-methyl-imidazole-2-carbonyl]amino]benzoyl]piperazine-1-carbonyl]piperidin-1-ium-1-yl]acetic acid;formate]  172 nM
16. Cn1c(-c2cn(-c3cc4[nH]c(CCN)cc4cn3)nc2C(F)(F)F)cnc1C(=O)Nc1ccc(C(=O)N2CCN(C(=O)[C@H]3CC[N@+](CC(=O)O)(CC4CNC4)CC3)CC2)c(Cl)c1 [Example 142, cis-2-[4-[4-[4-[[5-[1-[2-(2-aminoethyl)-1H-pyrrolo[3,2-c]pyridin-6-yl]-3-(trifluoromethyl)pyrazol-4-yl]-1-methyl-imidazole-2-carbonyl]amino]-2-chloro-benzoyl]piperazine-1-carbonyl]-1-(azetidin-3-ylmethyl)piperidin-1-ium-1-yl]acetic acid;formate]  69.5 nM
